Source: patent US10100076B2, “Modified nucleosides for the treatment of viral infections and abnormal cellular proliferation” (priority 2000, dated 2018)
Structures can show the parent of a compound that is named as a salt. Where two headings read alike, the source gives them in different places.

Experiments:
[1] = tested on: Influenza B; assay: microbe, parasite or virus in culture; type: cell-based
[2] = tested on: Influenza A (H3N2); assay: microbe, parasite or virus in culture; type: cell-based; settings: Initial Test, Neutral Red
[3] = tested on: Respiratory Syncytial Virus A; assay: microbe, parasite or virus in culture; type: cell-based, Respiratory Syncytial Virus strain A2
[4] = tested on: HCV replicon; assay: HCV replicon system in Huh7 cells, replicon RNA by Q-RT-PCR (HCV ΔCt, ΔΔCt); type: cell-based, hepatitis C virus; settings: for Ave. ΔΔCt: HCV RNA ΔCt minus rRNA ΔCt; for Ave. HCV RNA ΔCt: HCV replicon in Huh7 cells; for average ΔΔCt: HCV RNA ΔCt minus rDNA ΔCt
[5] = tested on: Influenza A (H3N2); assay: microbe, parasite or virus in culture; type: cell-based
[6] = tested on: Influenza A (H1N1); assay: microbe, parasite or virus in culture; type: cell-based; settings: Initial Test, Neutral Red
[7] = tested on: Influenza A (H1N1); assay: microbe, parasite or virus in culture; type: cell-based
[8] = tested on: Influenza B; assay: microbe, parasite or virus in culture; type: cell-based; settings: Initial Test, Neutral Red
[9] = tested on: Parainfluenza Type 3 Virus; assay: organism not typed; type: cell-based; settings: Initial Test, Neutral Red
[10] = tested on: Respiratory Syncytial Virus A; assay: microbe, parasite or virus in culture; type: cell-based; settings: Initial Test, Neutral Red
[11] = tested on: Parainfluenza Type 3 Virus; assay: organism not typed; type: cell-based, Parainfluenza type 3 virus strain 14702
[12] = tested on: rRNA (host RNA polymerase I product); assay: rRNA ΔCt in Huh7 replicon cells (effect on host RNA polymerases); settings: Table 24, average of n
Description: In a typical setting, a compound might reduce both the host RNA polymerase activity and the replicon-encoded polymerase activity. Therefore, quantification of rRNA (or any other host RNA polymerase I product) or beta-actin mRNA (or any other host RNA polymerase II) and comparison with RNA levels of the no-drug control is a relative measurement of the effect of the test compound on host RNA polymerases.
With the availability of both the HCV ΔCt data and the rRNA ΔCt, a specificity parameter can be introduced. This parameter is obtained by subtracting both ΔCt values from each other.

[13] = tested on: rDNA (host DNA); assay: rDNA ΔCt in Huh7 replicon cells (effect on cellular DNA polymerases); settings: Table 25, average of N
Description: In another typical setting, a compound might reduce the host RNA polymerase activity, but not the host DNA polymerase activity. Therefore, quantification of rDNA or beta-actin DNA (or any other host DNA fragment) and comparison with DNA levels of the no-drug control is a relative measurement of the inhibitory effect of the test compound on cellular DNA polymerases.
With the availability of both the HCV ΔCt data and the rDNA ΔCt, a specificity parameter can be introduced. This parameter is obtained by subtracting both ΔCt values from each other.

[14] = tested on: SUDHL-1 cells (human anaplastic large T-cell lymphoma cell line); assay: Prevention of β-D-GA-related cytotoxicity by natural nucleosides, SUDHL-1 cells; type: cell-based; settings: for prevention of β-D-GA toxicity, in words: 50 μM natural nucleoside, SUDHL-1 cells, 3 days, FIG. 4
Experimental: (§1) The prevention of β-D-GA-related cytotoxicity in CEM cells (human T-cell lymphoma) and in the SUDHL-1 cells (human anaplastic large T-cell lymphoma cell line) was studied by adding natural nucleosides. This experiment was initiated by adding 50 μM of natural nucleosides into the media, together with increasing concentration of β-D-GA. CEM cells were seeded at 2500 cells per well and incubated for 4 days (=fast growing cell line with a doubling time of 1.3 days). SUDHL-1 cells were seeded at 10,000 cells/well, and incubated for 3 days (=slow growing cell line, doubling time 3 days). The result of this experiment is plotted in FIG. 4.

[15] = tested on: CEM cells (human T-cell lymphoma); assay: Prevention of β-D-GA-related cytotoxicity by natural nucleosides, CEM cells; type: cell-based; settings: 50 μM natural nucleoside, 4 days, plot not shown
Experimental: as §1

[16] = tested on: Influenza B; type: cell-based, Influenza B virus B/Beijing/184/93
[17] = tested on: Influenza A (H3N2); type: cell-based, Influenza A virus A/Sydney/05/97
[18] = tested on: Influenza A (H1N1); type: cell-based, Influenza A virus A/Beijing/262/95
[19] = tested on: Vero cells; assay: cells; type: cell-based
Experimental: (§2) The cytotoxicity testing as performed herein is a standard technique. Briefly, cells are seeded in 96-well plates at various concentrations (dependent on cell type, duration of assay), typically at 5×10^3 cells per well, in the presence of increasing concentrations of the test compound (0, 1, 3, 10, 33, and 100 μM). After three (Vero cells), or four (CEM cells), or five (PBM cells) day-incubation, cell viability and mitochondrial activity are measured by adding the MTT-dye (Promega), followed by a 8 hours incubation. Afterwards the plates containing the dye are fixed by adding a stop-solution followed by another eight hour incubation. Finally, absorbance is read at 570 nm. Such methodologies are well described and available from the manufacturer (Promega).

[20] = tested on: human malignant T and B cells and various tumor cell lines; assay: Toxicity profile against human malignant T and B cells and various tumor cell lines (MTT, IC50); type: cell-based; settings: for IC50: MTT assay, 3-5 days, read-out: Toxicity IC50
Experimental: as §2, with “Cytotoxicity” for “The cytotoxicity”, “here are” for “herein is a”, “techniques.” for “technique.”, “Depending on the cell-type incubation with test compound can vary in time, but is usually within the range of 3 to 5 days. Cell” for “After three (Vero cells), or four (CEM cells), or five (PBM cells) day-incubation, cell”, “eight” for “a 8”, “hours of” for “hours”
In order to explore the complete potential of this compound, a set of human malignant T and B cells and various tumor cell lines were incubated with […] at varying concentrations, and after the absorbance was read, an IC50 value was calculated. As a control, Ara-C, 5FU, and cyclo-heximide was taken alongside (Table 26).

[21] = tested on: CEM cells; assay: cells; type: cell-based, human
Experimental: as §2

[22] = tested on: PBM cells; assay: cells; type: cell-based, human
Experimental: as §2

[23] = Initial Test, CPE Inhibition (Visual)
[24] = Initial Test, CPE Inhibition (Visual), read-out: EC50, RSV
[25] = Initial Test, CPE Inhibition (Visual), read-out: EC50, Parainfluenza Type 3 Virus
[26] = Confirmatory Test, Visual (EC50)

| Structure (SMILES) | EC50 [1, 23] [µM] | EC50 [2] [µM] | EC50 [3, 24] [µM] | Ave. ΔΔCt ([4]; Table 24) | Ave. HCV RNA ΔCt ([4]; Table 24, average of n) | average ΔΔCt ([4]; Table 25) | Ave. HCV RNA ΔCt ([4]; Table 25, average of N) | EC50 [5, 23] [µM] | EC50 [6] [µM] | EC50 [7, 23] [µM] | EC50 [8] [µM] | EC50 [9] [µM] | EC50 [10] [µM] | EC50 [11, 25] [µM] | Ave. rRNA ΔCt [12] | Ave. rDNA ΔCt [13] | prevention of β-D-GA toxicity, in words [14] | further results |
| --- | --- | --- | --- | --- | --- | --- | --- | --- | --- | --- | --- | --- | --- | --- | --- | --- | --- | --- |
| O=c1[nH]c(=O)n([C@@H]2O[C@H](CO)[C@@H](O)[C@H]2O)c2nn[nH]c12 (hydrate or solvate) | – | – | – | – | – | – | – | – | – | – | – | – | – | – | – | – | – | melting point: 164 to 166 °C (dec.) |
| OC[C@H]1O[C@@H](n2cnc3c(Cl)ncnc32)[C@H](O)[C@@H]1O [β-D-DJ] | 50 | > 500 | 500 | −0.11 | 3.51 | 2.14 | 4.84 | > 500 | > 500 | > 500 | 110 | 500 | > 500 | > 500 | 3.62 | 2.70 | – | – |
| Nc1ccn([C@H]2C[C@H](O)[C@@H](CO)O2)c(=O)n1 [2′-Deoxycytidine] | – | – | – | – | – | – | – | – | – | – | – | – | – | – | – | – | modest preventive activity effect | – |
| Nc1ccn([C@@H]2O[C@H](CO)C[C@H]2O)c(=O)n1 (as salt: hemisulfate) | – | – | – | – | – | – | – | – | – | – | – | – | – | – | – | – | – | melting point: 202 to 203 °C (dec.) |
| Nc1ccn([C@@H]2O[C@H](CO)[C@@H](O)[C@H]2O)c(=O)n1 [cytidine] | – | – | – | – | – | – | – | – | – | – | – | – | – | – | – | – | markedly prevent β-D-GA toxicity | prevention of β-D-GA toxicity, in words [15]: markedly prevent β-D-GA toxicity |
| O=c1nc(NO)ccn1[C@@H]1O[C@H](CO)[C@@H](O)[C@H]1O [β-D-BS] | 0.5 | 4 | 0.5 | 3.83 | 4.89 | 4.45 | 4.81 | 1.5 | 1.2 | 1.5 | 1.2 | 40 | < 0.5 | > 500 | 1.05 | 0.38 | – | EC50 [1, 26]: 0.6 µM; antiviral activity against RSV, in words ([3]; summary of Table 23): some activities against RSV; EC90 (μM), virus yield reduction [16]: 0.6 µM; EC50 [5, 26]: 0.5 µM; EC50 [7, 26]: 1.3 µM; antiviral activity against influenza A and B, in words ([7]; summary of Table 23, influenza A and B): potent in vitro antiviral capacities against influenza A and B; EC90 (virus yield reduction) [17]: 0.32 µM; EC90 (virus yield reduction) [18]: 0.4 µM; antiviral activity against Parainfluenza type 3 virus, in words ([11]; summary of Table 23): no activity against Parainfluenza type 3 virus |
| Nc1ccn([C@@H]2O[C@H](CO)C[C@H]2O)c(=O)n1 [β-D-AJ] | 150 | > 500 | > 500 | 1.18 | 2.92 | 2.33 | 2.75 | > 500 | 150 | 150 | 150 | > 500 | > 500 | > 500 | 1.74 | 0.43 | – | – |
| Nc1nc(=O)n([C@@H]2C[C@H](CO)[C@@H](O)[C@H]2O)cc1F [β-D-GA] | – | – | – | 3.93 | 6.04 | – | – | – | – | – | – | – | – | – | 2.10 | – | – | IC50 [19]: > 57.4 µM; IC50 ([19]; Vero (African green monkey kidney cell line), MTT assay, incubation 3-5 days, read-out: Toxicity IC50): > 100 µM; effectiveness against slow vs fast growing cells, in words ([14]; SUDHL-1 and CEM cells): equally effective against slower growing SUDHL-1 cells and fast growing CEM cells; IC50 ([20]; BL41 (human B-cell lymphoma cell line)): < 1 µM; IC50 ([20]; H9 (human T-cell lymphoblast cell line)): 1.4 µM; IC50 ([20]; HEPG2 (human liver carcinoma cell line)): > 100 µM; IC50 ([20]; JY (human B-cell lymphoma cell line, EBV transformed)): 3 µM; IC50 ([20]; LNCaP (human prostate adenocarcinoma cell line)): 45.7 µM; IC50 ([20]; MCF-7 (human breast carcinoma cell line)): > 100 µM; IC50 ([20]; SK-MEL-28 (human melanoma cell line)): > 100 µM; IC50 ([20]; SK-MES-1 (human lung squamous carcinoma cell line)): > 100 µM; IC50 ([20]; SUDHL-1 (human anaplastic large T-cell lymphoma cell line)): 0.7 µM; IC50 ([20]; SupT1 (human T-cell lymphoblast cell line)): 0.3 µM; toxicity in tumor cell panel, in words ([20]; human malignant T and B cells vs PBM and non-T or B neoplastic cells): potent toxicity in human malignant T and B cells, but not in human PBM cells and non-T or B neoplastic cells; IC50 [21]: 1.9 µM; cytotoxic effect on CEM cells, in words [21]: selective cytotoxic effect on CEM cells; IC50 ([21]; CEM (human T-cell lymphoma cell line), MTT assay, incubation 3-5 days, read-out: Toxicity IC50): 2.9 µM; IC50 [22]: > 100 µM; % inhibition at 100 μM, PBM cells ([22]; 100 μM, five day incubation, MTT): 11.3%; IC50 ([22]; PBM (human peripheral blood mononuclear cells), MTT assay, incubation 3-5 days, read-out: Toxicity IC50): > 100 µM |
| O=c1ccn([C@@H]2O[C@H](CO)[C@@H](O)[C@H]2O)c(=O)[nH]1 [uridine] | – | – | – | – | – | – | – | – | – | – | – | – | – | – | – | – | markedly prevent β-D-GA toxicity | prevention of β-D-GA toxicity, in words [15]: markedly prevent β-D-GA toxicity |
| O=c1[nH]c(=O)n([C@@H]2O[C@H](CO)[C@@H](O)[C@H]2O)cc1O [β-D-CL, 5-hydroxyuridine] | – | – | – | – | – | – | – | – | – | – | – | – | – | – | – | – | – | EC50 ([1]; Influenza B virus, MDCK, Initial Test, CPE Inhibition (Visual)): > 5 µM; EC50 ([2]; Influenza A virus, H3N2, MDCK): > 5 µM; antiviral activity against RSV, in words [3]: potent in-vitro anti-RSV compound; SI (Selectivity Index), RSV [3, 23]: 150; EC50 ([3]; human respiratory syncytial virus, MA104, read-out: EC50, RSV): 0.5 µM; EC50 ([5]; Influenza A virus, H3N2, MDCK, Initial Test, CPE Inhibition (Visual)): > 5 µM; EC50 ([6]; Influenza A virus, H1N1, MDCK): 8 µM; SI (Selectivity Index), Influenza A (H1N1) [6]: 1.1; EC50 ([7]; Influenza A virus, H1N1, MDCK, Initial Test, CPE Inhibition (Visual)): > 5 µM; EC50 ([8]; Influenza B virus, MDCK): > 5 µM; SI (Selectivity Index), Parainfluenza Type 3 Virus [9]: 1; EC50 ([9]; MA104): 40 µM; SI (Selectivity Index), RSV [10]: >170; EC50 ([10]; human respiratory syncytial virus, MA104): < 0.5 µM; EC50 ([11]; MA104, read-out: EC50, Parainfluenza Type 3 Virus): 90 µM |
